Laboratory results taken from ChEMBL document CHEMBL5634150, “Design, synthesis and biological evaluation of novel dihydroquinolin-4(1H)-one derivatives as novel tubulin polymerization inhibitors” (Eur J Med Chem, 2023).
Activity calls are given as the source filed them. No cut-off for these calls is given here.

Experiments:
[1] = Metabolic stability in mouse plasma assessed as compound remaining at 1 uM and measured at 3 hrs by LC-MS/MS analysis; type: ADME, cell-free; conditions: read-out: Stability
A549 = test: Antiproliferative activity against human A549 cells assessed as inhibition of cell growth at 1 uM measured after 72 hrs by MTT assay relative to control; type: functional
K562 [2] = test: Antiproliferative activity against human K562 cells assessed as inhibition of cell growth measured after 72 hrs by MTT assay; type: functional, cell-based; conditions: K562, 72 h
MDA-MB-231 [3] = test: Antiproliferative activity against human MDA-MB-231 cells assessed as inhibition of cell growth measured after 72 hrs by MTT assay; type: functional, cell-based; conditions: MDA-MB-231, 72 h
[4] = Antiproliferative activity against human HFL1 cells assessed as inhibition of cell growth measured after 72 hrs by MTT assay; type: toxicity, cell-based
Tubulin (Homo sapiens) = Tubulin (Homo sapiens) (UniProt P68371+Q9H4B7+P0DPH7+P68366+Q13509+Q71U36+P04350+Q3ZCM7+P07437+P68363+Q9BQE3+Q6PEY2+Q13885+Q9BVA1+Q9BUF5); test: Inhibition of [3H]colchicine binding to tubulin (unknown origin) at 1 uM incubated for 2 hrs by scintillation counter analysis relative to control; type: protein-complex assay
K562 [5] = test: Induction of apoptosis in human K562 cells at 1.5 nM measured after 48 hrs by Annexin V-FITC/7-AAD staining based flow cytometric analysis relative to control; type: functional
K562 [6] = test: Induction of cell cycle arrest in human K562 cells assessed as accumulation of cells at S phase at 1.5 nM incubated overnight by PI staining based flow cytometry analysis (reference value: 15.98%); type: functional
K562 [7] = test: Induction of cell cycle arrest in human K562 cells assessed as accumulation of cells at S phase at 3 nM incubated overnight by PI staining based flow cytometry analysis (reference value: 15.98%); type: functional
Cell membrane = test: Induction of mitochondrial membrane depolarization in human K562 cells assessed as increase in green fluorescence intensity at incubated for 48 hrs by JC-1 staining based flow cytometry; type: cell membranes; conditions: dose 1.5-6 nM
MDA-MB-231 [8] = test: Inhibition of cell migration in human MDA-MB-231 cells measured after 48 hrs by crystal violet staining microscopy based transwell migration assay; type: functional; conditions: dose 1.5-6 nM
HUVEC = test: Anti-angiogenesis activity in HUVEC cells assessed as disruption of capillary tube structure at 1.5 to 6 nM measured after 6 hrs by contrast microscopy based analysis; type: functional, cell-based; conditions: Homo sapiens, dose 1.5-6 nM
[9] = Metabolic stability in mouse liver microsomes assessed as intrinsic clearance at 100 uM measure upto 60 mins in presence of NADPH by LC-MS/MS analysis; type: ADME, Microsome; conditions: 1 h
H22 [10] = test: Antitumor activity against mouse H22 cells allografted in mouse model assessed as inhibition of tumor volume administered as iv dose for once daily for 3 weeks; type: functional, organism-based; conditions: dose 10-20 mg/kg
H22 [11] = test: Antitumor activity against mouse H22 cells allografted in mouse model assessed as tumor growth inhibition at 20 mg/kg,iv administered once daily for 3 weeks relative to control; type: functional; conditions: H22, 504 h, read-out: TGI
[12] = Toxicity in mouse assessed as effect on body weight loss at 20 mg/kg, iv administered once daily for 3 weeks; type: organism-based; conditions: in vivo, 504 h

Compound: CCn1ccc2cc(N3CCC(=O)c4c3cc(OC)c(OC)c4OC)ccc21
- remaining at 3 h, 1 µM [1]: 105%
- inhibition at 1 µM (A549): 79%
- IC50 (K562 [2]): 0.003 µM
- IC50 (MDA-MB-231 [3]): 0.024 µM
- IC50 at 72 h [4]: 0.062 µM
- inhibition (Tubulin (Homo sapiens)): 63.9%
- Activity (K562 [5]): 11.44%
- Activity (K562 [6]): 22.58%
- Activity (K562 [7]): 28.04%
- Activity (Cell membrane): Dose-Dependent Effect
- inhibition (MDA-MB-231 [8]): Dose-Dependent Effect
- Activity (HUVEC): Active
- CLH [9]: 129 µL/min/mg
- Activity (H22 [10]): Dose-Dependent Effect
- inhibition in vivo at 20 mg/kg (H22 [11]): 63.3%
- Activity [12]: Non-Toxic
